Literature values in US20050249795A1, “Gemcitabine compositions for better drug delivery” (NEOPHARM, INC., priority 2002, published 2005).
Structures can show the parent of a compound that is named as a salt.

What was measured:
[1] = in patients
[2] = system: LX-1 human lung xenografts; details: in vivo, LX-1 human lung xenograft
[3] = system: CALU-6 human lung xenografts; details: in vivo, CALU-6 human lung xenograft
[4] = system: NCI-H460 xenografts; details: in vivo, NCI-H460 xenograft
[5] = system: NCI-H520 xenografts; details: in vivo, NCI-H520 xenograft
[6] = system: Lewis lung murine xenograft
[7] = system: CEM T lymphoblastoid cells

**Q.** For `Nc1ccn([C@@H]2O[C@H](CO)[C@@H](O)C2(F)F)c(=O)n1` [Gemcitabine HCL, gemcitabine hydrochloride], which half-life [1] is on record?
**A.** Its half-life is “very short half-life”.

**Q.** Which “activity with cisplatin in vitro” value does the source give for `Nc1ccn([C@@H]2O[C@H](CO)[C@@H](O)C2(F)F)c(=O)n1` [Gemcitabine] here?
**A.** Its value is “dose-dependent synergistic activity”.

**Q.** What about the “activity in combination with cisplatin” value [2] of the same molecule?
**A.** Its value is “showed activity”.

**Q.** And the “activity in combination with cisplatin” value [3]?
**A.** Its value is “showed activity”.

**Q.** What about the “activity in combination with cisplatin” value [4] of the same molecule?
**A.** The value was “minimal activity”.

**Q.** What about the “activity in combination with cisplatin” value [5] of the same molecule?
**A.** Its value is “minimal activity”.

**Q.** What about the interaction with cisplatin [6] of the same molecule?
**A.** Its interaction with cisplatin is “synergistic”.

**Q.** And the “internucleosomal DNA fragmentation” value [7]?
**A.** Its value is “induces internucleosomal DNA fragmentation”.
